# In patent US10913740B2, “JAK kinase inhibitor compounds for treatment of respiratory disease” (THERAVANCE BIOPHARMA R&D IP, LLC, priority 2015, dated 2021):
# Read-outs that look alike come from different tables or passages of the source.
# Assays:
# [1] = Pharmacokinetics in plasma and lung in mouse; assay type: in vivo; conditions: ratio of lung AUC (μg hr/g) to plasma AUC (μg hr/mL), oral aspiration, 0.2 mg/mL, 50 uL
# Experimental: Plasma and lung levels of test compounds and ratios thereof were determined in the following manner. BALB/c mice from Charles River Laboratories were used in the assay. Test compounds were individually formulated in 20% propylene glycol in pH 4 citrate buffer at a concentration of 0.2 mg/mL and 50 uL of the dosing solution was introduced into the trachea of a mouse by oral aspiration. At various time points (typically 0.167, 2, 6, 24 hr) post dosing, blood samples were removed via cardiac puncture and intact lungs were excised from the mice. Blood samples were centrifuged (Eppendorf centrifuge, 5804R) for 4 minutes at approximately 12,000 rpm at 4° C. to collect plasma. Lungs were padded dry, weighed, and homogenized at a dilution of 1:3 in sterile water. Plasma and lung levels of test compound were determined by LC-MS analysis against analytical standards constructed into a standard curve in the test matrix. A lung to plasma ratio was determined as the ratio of the lung AUC in μg hr/g to the plasma AUC in μg hr/mL, where AUC is conventionally defined as the area under the curve of test compound concentration vs. time.
# [2] = system: IL-13 induced pSTAT6 in lung tissue; experiment: Murine model of IL-13 induced pSTAT6 induction in lung tissue; assay type: in vivo; conditions: mouse lung, Assay 5 conditions
# Experimental: Il-13 is an important cytokine underlying the pathophysiology of asthma (Kudlacz et al. Eur. J. Pharmacol, 2008, 582, 154-161). IL-13 binds to cell surface receptors activating members of the Janus family of kinases (JAK) which then phosphorylate STAT6 and subsequently activates further transcription pathways. In the described model, a dose of IL-13 was delivered locally into the lungs of mice to induce the phosphorylation of STAT6 (pSTAT6) which is then measured as the endpoint.
# Adult balb/c mice from Harlan were used in the assay. […] Animals were placed in lateral recumbency post dose and monitored for full recovery from anesthesia before being returned to their home cage. Four hours later, animals were once again briefly anesthetized and challenged with either vehicle or IL-13 (0.03 μg total dose delivered, 50 μL total volume) via oral aspiration before being monitored for recovery from anesthesia and returned to their home cage. One hour after vehicle or IL-13 administration, lungs were collected for both pSTAT6 detection using an anti-pSTAT6 ELISA (rabbit mAb capture/coating antibody; mouse mAb detection/report antibody: anti-pSTAT6-pY641; secondary antibody: anti-mouse IgG-HRP) and analyzed for total drug concentration as described above in Assay 4. […]
# JAK1 = JAK1 (Homo sapiens (Human), UniProt P23458); experiment: LanthaScreen JAK biochemical assay (JAK1); conditions: vs Examples 1, 7, 13, 6 respectively
# [3] = system: interleukin-13 induced STAT6 phosphorylation in BEAS-2B human lung epithelial cells; experiment: AlphaScreen JAKI cellular potency assay (BEAS-2B); assay type: cell-based; conditions: vs Examples 1, 7, 13, 6 respectively
# Experimental: The AlphaScreen JAKI cellular potency assay was carried out by measuring interleukin-13 (IL-13, R&D Systems) induced STAT6 phosphorylation in BEAS-2B human lung epithelial cells (ATCC). The anti-STAT6 antibody (Cell Signaling Technologies) was conjugated to AlphaScreen acceptor beads (Perkin Elmer), while the anti-pSTAT6 (pTyr641) antibody (Cell Signaling Technologies) was biotinylated using EZ-Link Sulfo-NHS-Biotin (Thermo Scientific).
# BEAS-2B cells were grown at 37° C. in a 5% CO2 humidified incubator in 50% DMEM/50% F-12 medium (Life Technologies) supplemented with 10% FBS (Hyclone), 100 U/mL penicillin, 100 μg/mL streptomycin (Life Technologies), and 2 mM GlutaMAX (Life Technologies). On day 1 of the assay, cells were seeded at a 7,500 cells/well density in white poly-D-lysine-coated 384-well plates (Corning) with 25 μL medium, and were allowed to adhere overnight in the incubator. On day 2 of the assay, the medium was removed and replaced with 12 μL of assay buffer (Hank's Balanced Salt Solution/HBSS, 25 mM HEPES, and 1 mg/ml bovine serum albumin/BSA) containing dose-responses of test compounds. Compounds were serially diluted in DMSO and then diluted another 1000-fold in media to bring the final DMSO concentration to 0.1%. Cells were incubated with test compounds at 37° C. for 1 h, and followed by the addition of 12 μl of pre-warmed IL-13 (80 ng/ml in assay buffer) for stimulation. After incubating at 37° C. for 30 min, the assay buffer (containing compound and IL-13) was removed, and 10 μl of cell lysis buffer (25 mM HEPES, 0.1% SDS, 1% NP-40, 5 mM MgCl2, 1.3 mM EDTA, 1 mM EGTA, and supplement with Complete Ultra mini protease inhibitors and PhosSTOP from Roche Diagnostics). The plates were shaken at ambient temperature for 30 min before the addition of detection reagents. […] After a minimum of 2 h incubation, the assay plates were read on the EnVision plate reader.
# Results were expressed as the negative logarithm of the IC50 value, pIC50.
# [4] = mouse, in vivo
# Experimental: Adult balb/c mice from Harlan were used in the assay. On the day of study, animals were lightly anesthetized with isoflurane and administered either vehicle or test compound (0.5 mg/mL, 50 μL total volume over several breaths) via oral aspiration. Animals were placed in lateral recumbency post dose and monitored for full recovery from anesthesia before being returned to their home cage. Four hours later, animals were once again briefly anesthetized and challenged with either vehicle or IL-13 (0.03 μg total dose delivered, 50 μL total volume) via oral aspiration before being monitored for recovery from anesthesia and returned to their home cage. One hour after vehicle or IL-13 administration, lungs were collected for both pSTAT6 detection using an anti-pSTAT6 ELISA (rabbit mAb capture/coating antibody; mouse mAb detection/report antibody: anti-pSTAT6-pY641; secondary antibody: anti-mouse IgG-HRP) and analyzed for total drug concentration as described above in Assay 4.
# Selected compounds of the invention were characterized in both the pharmacokinetic assay (Assay 4) and pharmacodynamic assay (Assay 5). A good correlation was observed between test compound concentration in lung determined in the pharmacokinetic assay and in the pharmacodynamic assay at a similar time points post dosing. Observation of significant compound concentration in the mouse lung in the pharmacodynamic assay confirmed that the observed inhibition of IL-13 induced pSTAT6 induction was a result of the activity of the test compound.
# [5] = Dynamic moisture sorption assessment; assay type: physicochemical; conditions: humidity range of 5% to 90% relative humidity, room temperature (25° C.)
# Experimental: Dynamic moisture sorption (DMS) measurement was performed using a VTI atmospheric microbalance, SGA-100 system (VTI Corp., Hialeah, Fla. 33016). A weighed sample was used and the humidity was lowest possible value (close to 0% RH) at the start of the analysis. The DMS analysis consisted of an initial drying step (˜0% RH) for 120 minutes, followed by two cycles of sorption and desorption with a scan rate of 5% RH/step over the humidity range of 5% RH to 90% RH. The DMS run was performed isothermally at 25° C.
# JAK1, sequence (P23458 whole entry): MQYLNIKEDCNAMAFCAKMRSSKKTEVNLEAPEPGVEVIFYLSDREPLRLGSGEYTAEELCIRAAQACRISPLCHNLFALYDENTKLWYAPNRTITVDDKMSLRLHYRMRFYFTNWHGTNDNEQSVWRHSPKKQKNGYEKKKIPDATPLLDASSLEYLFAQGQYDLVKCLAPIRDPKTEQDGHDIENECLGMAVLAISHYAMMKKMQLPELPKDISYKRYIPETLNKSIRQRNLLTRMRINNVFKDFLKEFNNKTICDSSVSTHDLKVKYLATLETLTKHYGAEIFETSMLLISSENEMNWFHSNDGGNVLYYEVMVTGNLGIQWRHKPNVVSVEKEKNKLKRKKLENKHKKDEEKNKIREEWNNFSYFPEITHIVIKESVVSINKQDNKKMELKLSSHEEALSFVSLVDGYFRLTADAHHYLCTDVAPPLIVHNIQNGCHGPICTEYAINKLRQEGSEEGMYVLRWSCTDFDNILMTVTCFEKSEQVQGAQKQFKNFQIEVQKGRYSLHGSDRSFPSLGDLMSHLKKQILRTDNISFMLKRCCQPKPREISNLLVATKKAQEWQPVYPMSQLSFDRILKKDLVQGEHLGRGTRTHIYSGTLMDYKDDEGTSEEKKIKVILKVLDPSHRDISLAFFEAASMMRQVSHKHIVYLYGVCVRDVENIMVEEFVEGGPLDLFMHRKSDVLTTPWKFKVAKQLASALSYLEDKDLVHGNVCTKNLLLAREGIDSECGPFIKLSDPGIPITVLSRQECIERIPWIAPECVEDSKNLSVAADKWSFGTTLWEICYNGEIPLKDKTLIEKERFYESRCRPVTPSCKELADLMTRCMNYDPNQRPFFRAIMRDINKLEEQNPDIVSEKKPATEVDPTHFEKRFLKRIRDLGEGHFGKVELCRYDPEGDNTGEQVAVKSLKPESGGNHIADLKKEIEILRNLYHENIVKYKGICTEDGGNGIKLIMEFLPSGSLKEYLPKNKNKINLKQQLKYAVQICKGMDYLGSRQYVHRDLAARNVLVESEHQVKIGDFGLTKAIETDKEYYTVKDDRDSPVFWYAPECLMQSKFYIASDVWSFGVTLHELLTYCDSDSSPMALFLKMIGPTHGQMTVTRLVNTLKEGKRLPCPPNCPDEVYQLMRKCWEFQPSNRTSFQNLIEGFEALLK
compound,measurement,setting,value
CCc1cc(O)c(F)cc1-c1ccc2c(-c3nc4c([nH]3)CCN(CCN(C)CC(C)C)C4)n[nH]c2c1 [Example 3-33],Lung to Plasma ratio Assay 4,[1],A (A denotes a ratio >100)
"CCc1cc(O)c(F)cc1-c1ccc2c(-c3nc4c([nH]3)CCN(CCNC3CC(OC)C3)C4)n[nH]c2c1 (stereo not drawn) [Example 8, 5-Ethyl-2-fluoro-4-(3-(5-(2-((3-methoxycyclobutyl)amino)ethyl)-4,5,6,7-tetrahydro-1H-imidazo[4,5-c]pyridin-2-yl)-1H-indazol-6-yl)phenol]",Lung to Plasma ratio Assay 4,[1],A (A denotes a ratio >100)
"CCc1cc(O)c(F)cc1-c1ccc2c(-c3nc4c([nH]3)CCN(C[C@@H]3COCCN3)C4)n[nH]c2c1 [Example 14, (R)-5-Ethyl-2-fluoro-4-(3-(5-(morpholin-3-ylmethyl)-4,5,6,7-tetrahydro-1H-imidazo[4,5-c]pyridin-2-yl)-1H-indazol-6-yl)phenol]",Lung to Plasma ratio Assay 4,[1],A (A denotes a ratio >100)
CCc1cc(O)c(F)cc1-c1ccc2c(-c3nc4c([nH]3)CCN(C3CN(C5CCS(=O)(=O)C5)C3)C4)n[nH]c2c1 (stereo not drawn) [Example 1-15],pSTAT6 inhibition in the pharmacodynamic assay,[2],noted as exceptions
CCc1cc(O)c(F)cc1-c1ccc2c(-c3nc4c([nH]3)CCN(C3CCC(C)CC3)C4)n[nH]c2c1 (stereo not drawn) [Example C-4],fold less potent than the corresponding compound of the invention in the enzyme assay,JAK1,2.5 fold
same,fold less potent than the corresponding compound of the invention in the BEAS-2B cellular assay,[3],6 fold
same,factor by which lung concentration was smaller than for the corresponding compound of the invention,[4],23
CCc1cc(O)c(F)cc1-c1ccc2c(-c3nc4c([nH]3)CCN(CC3CNC3)C4)n[nH]c2c1 [Example 14-7],Lung to Plasma ratio Assay 4,[1],A (A denotes a ratio >100)
"CCc1cc(O)c(F)cc1-c1ccc2c(-c3nc4c([nH]3)CCN(C3CCN(C)CC3)C4)n[nH]c2c1 [crystalline hydrate, 5-ethyl-2-fluoro-4-(3-(5-(1-methylpiperidin-4-yl)-4,5,6,7-tetrahydro-1H-imidazo[4,5-c]pyridin-2-yl)-1H-indazol-6-yl)phenol]",weight gain (dynamic moisture sorption),[5],less than 0.12%
CCc1cc(O)c(F)cc1-c1ccc2c(-c3nc4c([nH]3)CCN(CC3CCCOC3)C4)n[nH]c2c1 (stereo not drawn) [Example C-3],fold less potent than the corresponding compound of the invention in the enzyme assay,JAK1,6 fold
same,fold less potent than the corresponding compound of the invention in the BEAS-2B cellular assay,[3],3 fold
same,factor by which lung concentration was smaller than for the corresponding compound of the invention,[4],13
CCc1cc(O)c(F)cc1-c1ccc2c(-c3nc4c([nH]3)CCN(CCNC3(C#N)CC3)C4)n[nH]c2c1 [Example 3-1],pSTAT6 inhibition in the pharmacodynamic assay,[2],noted as exceptions
CCc1cc(O)c(F)cc1-c1ccc2c(-c3nc4c([nH]3)CCN(CCC(C)C)C4)n[nH]c2c1 [Example C-2],fold less potent than the corresponding compound of the invention in the enzyme assay,JAK1,3 fold
same,fold less potent than the corresponding compound of the invention in the BEAS-2B cellular assay,[3],6 fold
same,factor by which lung concentration was smaller than for the corresponding compound of the invention,[4],52
"CCc1cc(O)c(F)cc1-c1ccc2c(-c3nc4c([nH]3)CCN(C[C@@H]3CCCN3C)C4)n[nH]c2c1 [Example 11, (S)-5-ethyl-2-fluoro-4-(3-(5-((1-methylpyrrolidin-2-yl)methyl)-4,5,6,7-tetrahydro-1H-imidazo[4,5-c]pyridin-2-yl)-1H-indazol-6-yl)phenol]",Lung to Plasma ratio Assay 4,[1],A (A denotes a ratio >100)
"CCc1cc(O)c(F)cc1-c1ccc2c(-c3nc4c([nH]3)CCN(CCN3CCC[C@@H]3C)C4)n[nH]c2c1 [Example 15, (S)-5-ethyl-2-fluoro-4-(3-(5-(2-(2-methylpyrrolidin-1-yl)ethyl)-4,5,6,7-tetrahydro-1H-imidazo[4,5-c]pyridin-2-yl)-1H-indazol-6-yl)phenol]",Lung to Plasma ratio Assay 4,[1],A (A denotes a ratio >100)
"CCc1cc(O)c(F)cc1-c1ccc2c(-c3nc4c([nH]3)CCN(C3CC(C)C3)C4)n[nH]c2c1 (stereo not drawn) [Example C-1, 5-Ethyl-2-fluoro-4-(3-(5-(3-methylcyclobutyl)-4,5,6,7-tetrahydro-1H-imidazo[4,5-c]pyridin-2-yl)-1H-indazol-6-yl)phenol]",fold less potent than the corresponding compound of the invention in the enzyme assay,JAK1,2 fold
same,factor by which lung concentration was smaller than for the corresponding compound of the invention,"[4]; balb/c, 5 h",36
"CCc1cc(O)c(F)cc1-c1ccc2c(-c3nc4c([nH]3)CCN(C[C@H]3COCCN3)C4)n[nH]c2c1 [Example 13, (S)-5-Ethyl-2-fluoro-4-(3-(5-(morpholin-3-ylmethyl)-4,5,6,7-tetrahydro-1H-imidazo[4,5-c]pyridin-2-yl)-1H-indazol-6-yl)phenol]",Lung to Plasma ratio Assay 4,[1],A (A denotes a ratio >100)
